# ChEMBL document CHEMBL1201862, “PubChem BioAssay data set” (2004)
# The source made the active and inactive calls.
# Columns and labels:
# [1] = intracellular Trypanosoma cruzi inhibitors in host cells – cell-based, plate reader, cherry-pick samples, set 3, dose response (AID 651818); type: functional;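 further: compounds incubated with infected cells for about four days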
# [2] = inhibitors of intracellular T. cruzi replication, confirmation, NIH3T3 host cells, beta-gal luminescence (AID 2044); type: functional, cell-based;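 further: intracellular parasites grown in NIH/3T3 mouse fibroblasts as host cells; luminescent beta-galactosidase reporter signal from transgenic T. cruzi replicating inside host cells; inhibitors lower the luminescence signal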
# [3] = cytotoxicity toward NIH3T3 fibroblasts, dose response, counter-screen, cell-based, ATP luminescence, mouse fibroblasts (AID 2010); type: functional;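 further: cells exposed to compound for about 90 hours before reading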
# [4] = molecular target: T1, DNA repair protein RAD52 homolog (Homo sapiens, UniProt P43351); type: functional, biochemical
# T1 sequence (P43351 whole entry): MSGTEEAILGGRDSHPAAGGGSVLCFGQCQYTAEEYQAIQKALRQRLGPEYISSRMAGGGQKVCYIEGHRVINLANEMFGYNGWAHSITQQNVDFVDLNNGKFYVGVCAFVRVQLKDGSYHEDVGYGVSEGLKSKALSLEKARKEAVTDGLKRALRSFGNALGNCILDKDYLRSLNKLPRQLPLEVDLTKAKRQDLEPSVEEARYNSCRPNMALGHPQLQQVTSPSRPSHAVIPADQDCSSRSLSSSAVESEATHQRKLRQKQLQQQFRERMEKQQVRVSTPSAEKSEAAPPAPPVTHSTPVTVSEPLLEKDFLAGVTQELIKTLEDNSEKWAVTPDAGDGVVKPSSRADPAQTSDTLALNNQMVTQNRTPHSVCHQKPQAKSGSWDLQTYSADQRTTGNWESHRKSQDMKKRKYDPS
# Prothrombin = Prothrombin (Homo sapiens, UniProt P00734); test: Thrombin 1536 HTS Dose Response Confirmation. [Related pubchem assays: 1046 (Thrombin 1536 HTS; hits were confirmed in this assay)]; type: functional
# [5] = molecular target: T2, Heat shock factor protein 1 (Mus musculus, UniProt P38532); test: HSF1 potentiators in luciferase reporter cells, confirmation, cell-based, NIH3T3, luminescence, dose retest (AID 435004); type: functional;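 further: stress induced by proteasome inhibitor MG132 added 30 min after compound; luciferase reporter driven by HSF1 response element in NIH3T3 cells; actives raise luminescence as potentiators of the MG132 stress response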
# T2 sequence (P38532 whole entry): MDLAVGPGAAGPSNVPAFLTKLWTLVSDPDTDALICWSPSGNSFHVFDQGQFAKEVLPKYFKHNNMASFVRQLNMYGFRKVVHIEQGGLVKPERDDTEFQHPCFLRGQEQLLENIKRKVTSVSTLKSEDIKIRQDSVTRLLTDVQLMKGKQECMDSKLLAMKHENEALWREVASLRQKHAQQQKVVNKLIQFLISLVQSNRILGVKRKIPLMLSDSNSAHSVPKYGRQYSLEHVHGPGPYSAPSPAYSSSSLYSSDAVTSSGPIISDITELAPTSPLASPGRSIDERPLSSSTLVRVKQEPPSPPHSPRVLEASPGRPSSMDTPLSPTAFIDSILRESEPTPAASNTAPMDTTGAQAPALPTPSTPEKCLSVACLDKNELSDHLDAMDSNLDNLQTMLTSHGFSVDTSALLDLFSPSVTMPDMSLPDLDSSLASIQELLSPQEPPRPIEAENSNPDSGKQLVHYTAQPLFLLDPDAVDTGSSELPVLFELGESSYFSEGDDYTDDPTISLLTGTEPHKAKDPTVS
# [6] = tested on: Streptococcus sp. 'group A'; test: growth inhibition of control SK(-) GAS strain, dose response, counter-screen for streptokinase expression inhibitor project, luminescence, kanamycin, BacTiterGlo, confirmation (AID 1900); type: functional, organism-based
# Streptokinase A = molecular target: T3, Streptokinase A (Streptococcus pyogenes serotype M1, UniProt P10520); test: S. pyogenes streptokinase expression inhibitors, potency, dose response, plasminogen activation absorbance, OD405 (AID 1914); type: functional, Streptococcus pyogenes M1 GAS;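 further: secreted streptokinase activity via plasminogen activation per viability signal from cell pellet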
# T3 sequence (P10520 whole entry): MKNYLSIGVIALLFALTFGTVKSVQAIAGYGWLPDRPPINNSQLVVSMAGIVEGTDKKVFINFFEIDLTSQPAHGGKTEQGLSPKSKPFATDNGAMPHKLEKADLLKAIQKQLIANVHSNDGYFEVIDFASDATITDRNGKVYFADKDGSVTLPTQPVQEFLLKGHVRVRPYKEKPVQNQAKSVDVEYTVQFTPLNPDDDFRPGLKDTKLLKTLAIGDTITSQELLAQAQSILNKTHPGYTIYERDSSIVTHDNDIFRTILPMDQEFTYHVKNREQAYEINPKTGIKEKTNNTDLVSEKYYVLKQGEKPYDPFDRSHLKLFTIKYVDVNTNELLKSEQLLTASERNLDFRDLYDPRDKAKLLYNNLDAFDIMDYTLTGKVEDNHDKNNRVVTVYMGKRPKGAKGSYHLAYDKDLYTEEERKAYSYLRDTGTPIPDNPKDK
# Streptococcus = test: Group A Streptococcus viability loss, dose response, counter-screen for streptokinase expression inhibitor project, luminescence, BacTiterGlo (AID 1915); type: functional, organism-based;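 further: potency for reduction of bacterial viability or growth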
# [7] = molecular target: T4, Histone-lysine N-methyltransferase NSD2 (Homo sapiens, UniProt O96028); type: biochemical
# T4 sequence (O96028 whole entry): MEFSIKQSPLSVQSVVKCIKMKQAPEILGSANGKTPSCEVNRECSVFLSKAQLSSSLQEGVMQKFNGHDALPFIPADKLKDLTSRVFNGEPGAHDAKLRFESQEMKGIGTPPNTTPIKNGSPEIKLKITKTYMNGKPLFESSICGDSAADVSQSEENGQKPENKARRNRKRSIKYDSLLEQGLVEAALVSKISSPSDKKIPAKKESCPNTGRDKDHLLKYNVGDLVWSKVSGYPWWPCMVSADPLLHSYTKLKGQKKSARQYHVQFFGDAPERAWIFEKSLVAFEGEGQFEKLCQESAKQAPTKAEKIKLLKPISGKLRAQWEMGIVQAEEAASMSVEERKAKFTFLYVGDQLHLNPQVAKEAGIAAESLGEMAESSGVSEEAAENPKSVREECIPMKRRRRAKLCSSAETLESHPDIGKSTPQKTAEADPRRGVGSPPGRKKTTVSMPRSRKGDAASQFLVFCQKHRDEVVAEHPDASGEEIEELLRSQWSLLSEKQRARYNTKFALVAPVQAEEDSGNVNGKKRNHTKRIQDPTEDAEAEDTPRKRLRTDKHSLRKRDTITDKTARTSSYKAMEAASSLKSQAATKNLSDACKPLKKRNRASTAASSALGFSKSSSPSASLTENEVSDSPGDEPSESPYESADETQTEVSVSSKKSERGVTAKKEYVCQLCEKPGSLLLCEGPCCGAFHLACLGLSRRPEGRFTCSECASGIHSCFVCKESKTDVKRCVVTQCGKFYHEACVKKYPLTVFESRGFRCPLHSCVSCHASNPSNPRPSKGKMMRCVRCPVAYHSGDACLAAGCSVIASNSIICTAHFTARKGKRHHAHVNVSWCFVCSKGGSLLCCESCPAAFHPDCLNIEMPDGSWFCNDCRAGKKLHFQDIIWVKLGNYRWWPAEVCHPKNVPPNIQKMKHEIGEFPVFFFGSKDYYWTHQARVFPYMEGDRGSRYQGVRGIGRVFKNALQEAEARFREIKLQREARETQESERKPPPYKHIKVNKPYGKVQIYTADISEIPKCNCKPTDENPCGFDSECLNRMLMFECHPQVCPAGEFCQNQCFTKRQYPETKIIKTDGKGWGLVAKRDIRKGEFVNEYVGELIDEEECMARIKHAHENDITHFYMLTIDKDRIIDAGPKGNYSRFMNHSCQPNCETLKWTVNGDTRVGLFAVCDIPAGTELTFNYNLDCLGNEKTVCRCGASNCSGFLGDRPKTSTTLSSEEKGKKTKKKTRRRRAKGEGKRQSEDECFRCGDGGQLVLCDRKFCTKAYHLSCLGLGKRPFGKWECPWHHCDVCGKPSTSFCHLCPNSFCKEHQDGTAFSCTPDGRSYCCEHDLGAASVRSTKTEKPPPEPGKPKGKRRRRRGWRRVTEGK
# [8] = A549 cell cytotoxicity, dose response, cytotoxicity control, plate reader, cherry-pick, antagonist series (AID 743412); type: functional, cell-based
# [9] = HepG2 cell cytotoxicity, dose response, cytotoxicity control, plate reader, cherry-pick, antagonist series (AID 743416); type: functional, cell-based
# [10] = LGR2 antagonists, dose response, cell-based, HEK293, CRE-luciferase reporter, cherry pick, set 2 (AID 743343); type: functional;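 further: transfected cells were stimulated with diluted bursicon conditioned medium after compound addition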
# [11] = MC4R antagonists, dose response, counter-screen for LGR2 antagonist project, cell-based, plate reader, cherry pick (AID 743444); type: functional;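 further: transfected HEK 293 cells stimulated with alpha-MSH peptide; potency of inhibitors of the alpha-MSH evoked signal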
# [12] = inhibitors of clade B AD8 Env fusion, dose response, cell-based, cherry-pick (AID 652062); type: functional;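 further: luciferase signal from cell-cell fusion driven by HIV-1 clade B AD8 Env; potency is for inhibitors of fusion seen as a drop in luminescence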
# [13] = molecular target: T5, Short transient receptor potential channel 4 (Mus musculus, UniProt Q9QUQ5); test: mouse TRPC4 channel activators, dose response, cell-based, HEK293 TRPC4/mu-opioid, Fluo-4 calcium (AID 434937); type: functional
# T5 sequence (Q9QUQ5 whole entry): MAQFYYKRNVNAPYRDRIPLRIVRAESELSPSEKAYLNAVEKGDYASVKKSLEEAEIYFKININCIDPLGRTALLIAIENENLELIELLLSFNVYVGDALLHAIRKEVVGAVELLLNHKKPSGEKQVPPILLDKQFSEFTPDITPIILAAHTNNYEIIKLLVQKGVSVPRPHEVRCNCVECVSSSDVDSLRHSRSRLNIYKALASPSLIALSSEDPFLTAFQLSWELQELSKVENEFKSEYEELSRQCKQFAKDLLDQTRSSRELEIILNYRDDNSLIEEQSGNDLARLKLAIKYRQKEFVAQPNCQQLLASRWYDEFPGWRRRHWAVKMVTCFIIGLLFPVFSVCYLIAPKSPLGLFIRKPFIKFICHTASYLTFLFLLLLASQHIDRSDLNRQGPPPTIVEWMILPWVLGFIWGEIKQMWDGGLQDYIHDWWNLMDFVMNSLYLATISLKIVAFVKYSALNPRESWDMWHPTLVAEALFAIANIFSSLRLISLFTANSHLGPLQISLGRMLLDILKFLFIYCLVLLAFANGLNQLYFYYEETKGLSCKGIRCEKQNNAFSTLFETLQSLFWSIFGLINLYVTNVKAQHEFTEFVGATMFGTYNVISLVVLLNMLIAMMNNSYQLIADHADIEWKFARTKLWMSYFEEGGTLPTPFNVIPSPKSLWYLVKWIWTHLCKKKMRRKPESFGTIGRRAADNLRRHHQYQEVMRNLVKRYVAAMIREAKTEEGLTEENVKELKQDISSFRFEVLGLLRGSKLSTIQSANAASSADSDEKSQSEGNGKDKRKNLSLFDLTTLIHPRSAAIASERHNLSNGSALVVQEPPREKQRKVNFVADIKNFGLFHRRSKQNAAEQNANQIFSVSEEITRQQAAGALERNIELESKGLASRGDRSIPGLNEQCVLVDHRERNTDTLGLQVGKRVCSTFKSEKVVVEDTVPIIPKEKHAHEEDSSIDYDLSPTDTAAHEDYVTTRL
smiles,measurement,setting,value
C[C@H]1CN([C@@H](C)CO)C(=O)Cc2cc(NS(=O)(=O)c3ccccc3)ccc2O[C@@H]1CN(C)Cc1ccc(-c2ccccc2)cc1,AC50,[1],5.32 µM (active)
Cc1cc(C)c2nc(N(CCCN(C)C)C(=O)c3ccc4c(c3)CCCC4)sc2c1,EC50,[2],0.727 µM (active)
same,EC50,[3],4.48 µM (active)
same,AC50,[4],13.4 µM (active)
COc1ccc(CN(C)C[C@H]2Oc3c(NC(=O)Nc4ccc(C(F)(F)F)cc4)cccc3C(=O)N([C@H](C)CO)C[C@@H]2C)cc1,AC50,[1],3.26 µM (active)
Cn1c(=O)c2cc(NC(=O)c3ccccc3Cl)c(=O)oc2n(C)c1=O,IC50,Prothrombin,0.321 µM (active)
COCCNC(=O)Cn1nc(C(F)(F)F)cc1C,IC50,Prothrombin,> 50 µM (not active)
C[C@H](CO)N1C[C@H](C)[C@@H](CN(C)S(=O)(=O)c2ccc(Cl)cc2)Oc2c(cccc2N(C)C)C1=O,AC50,[1],10.1 µM (active)
C[C@@H]1CCCCO[C@H](CN(C)Cc2ccc3c(c2)OCO3)[C@@H](C)CN([C@H](C)CO)C(=O)c2cc(NC(=O)Nc3ccc(C(F)(F)F)cc3)ccc2O1,AC50,[1],2.16 µM (active)
COc1cc(/C=C2\SC(=O)N(CCN)C2=O)ccc1OS(=O)(=O)c1cc(C)ccc1C,AC50,[4],5.08 µM (active)
C[C@@H]1CN([C@@H](C)CO)C(=O)c2cccc(NC(=O)c3ccc(-c4nccs4)cc3)c2O[C@@H]1CN(C)Cc1ccc(C(=O)Nc2ccccc2N)cc1,AC50,[1],1.61 µM (active)
Cc1ccc(C(=O)n2cnnc2N)cc1,IC50,Prothrombin,4.05 µM (active)
same,EC50,[5],> 260 µM (inactive)
CCOC(=O)C1=C(C)N=c2s/c(=C\c3ccc(O)c([N+](=O)[O-])c3)c(=O)n2C1c1ccccc1OC (centres undefined),EC50,[6],7.08 µM (active)
same,EC50,Streptokinase A,20.4 µM (active)
same,EC50,Streptococcus,31.3 µM (active)
same,AC50,[7],> 20 µM (inactive)
COc1ccc(S(=O)(=O)N(C)C[C@@H]2OCc3cnnn3CCCC(=O)N([C@@H](C)CO)C[C@H]2C)cc1,AC50,[8],> 52 µM (inactive)
same,AC50,[9],> 52 µM (inactive)
same,AC50,[10],2.36 µM (active)
same,AC50,[11],1.75 µM (active)
O=C(O)c1ccc(/C=N/NC(=O)c2ccc(F)cc2)cc1,IC50,Prothrombin,> 50 µM (not active)
O=C(COC(=O)c1ncc(Cl)c(Cl)c1Cl)NCc1cccs1,AC50,[12],1.12 µM (active)
C/C(=N\Nc1ccc(Cl)c(C(=O)O)c1)c1cccc([N+](=O)[O-])c1,IC50,Prothrombin,> 50 µM (not active)
CN(C)CCCNC(=O)C(=O)Nc1cc2c3c(c1)CC(=O)N3CCC2,AC50,[4],15.4 µM (active)
COc1ccccc1N1CCN(C(c2cccs2)C(C)NC(=O)c2cccs2)CC1 (centres undefined),EC50,[13],0.335 µM (active)
COc1ccc(NC(=O)Nc2ccc3c(c2)C(=O)N([C@@H](C)CO)C[C@H](C)[C@@H](CN(C)Cc2ccc(-c4ccccc4)cc2)O3)cc1,AC50,[1],5.13 µM (active)
C[C@@H]1CN([C@H](C)CO)C(=O)c2cccc(NS(=O)(=O)c3ccc(Cl)cc3)c2O[C@H]1CN(C)Cc1ccc(C(=O)Nc2ccccc2N)cc1,AC50,[1],1.77 µM (active)
CCC1CCCCN1S(=O)(=O)c1ccc(C(=O)N(CCCN(C)C)c2nc3cc4c(cc3s2)OCO4)cc1 (centres undefined),EC50,[13],6.68 µM (active)
